Counter-ions that a name gives are not always drawn. Bounds are passed on as bounds.

The target of series [1] is 5-HT5 (Homo sapiens, UniProt P47898). As to the kind of experiment: 5-HT5 binding. The source says: (§1) Further, the compounds of the invention may be tested in binding assays and functional activity assays by well known methods for other physiologically important receptors such as, but not limited to, the hERO channel, other serotonin receptors (specifically 5-HT1B, 5-HT1D, receptors, lack of agonist activity at 5-HT2B receptors, 5-HT2C, 5-HT5, 5-HT6, and 5-HT7 receptors), dopaminergic receptors (specifically D1, D2, and D3), GABAA receptors, adrenergic receptors and monoamine transporters.
5-HT5, sequence (P47898 whole entry, species assumed): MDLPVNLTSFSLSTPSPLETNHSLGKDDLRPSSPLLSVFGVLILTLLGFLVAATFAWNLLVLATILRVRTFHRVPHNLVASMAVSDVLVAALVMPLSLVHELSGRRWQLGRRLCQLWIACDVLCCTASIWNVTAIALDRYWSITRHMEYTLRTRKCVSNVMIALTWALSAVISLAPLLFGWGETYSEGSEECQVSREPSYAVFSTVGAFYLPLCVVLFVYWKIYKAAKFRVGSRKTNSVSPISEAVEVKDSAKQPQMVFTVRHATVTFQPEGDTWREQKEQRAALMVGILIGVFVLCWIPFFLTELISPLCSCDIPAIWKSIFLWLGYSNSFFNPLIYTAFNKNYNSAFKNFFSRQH

In series [2] the target is Adrenergic alpha2C (Homo sapiens, UniProt P18825). As to the kind of experiment: Adrenergic alpha2C binding.
Adrenergic alpha2C, sequence (P18825 whole entry): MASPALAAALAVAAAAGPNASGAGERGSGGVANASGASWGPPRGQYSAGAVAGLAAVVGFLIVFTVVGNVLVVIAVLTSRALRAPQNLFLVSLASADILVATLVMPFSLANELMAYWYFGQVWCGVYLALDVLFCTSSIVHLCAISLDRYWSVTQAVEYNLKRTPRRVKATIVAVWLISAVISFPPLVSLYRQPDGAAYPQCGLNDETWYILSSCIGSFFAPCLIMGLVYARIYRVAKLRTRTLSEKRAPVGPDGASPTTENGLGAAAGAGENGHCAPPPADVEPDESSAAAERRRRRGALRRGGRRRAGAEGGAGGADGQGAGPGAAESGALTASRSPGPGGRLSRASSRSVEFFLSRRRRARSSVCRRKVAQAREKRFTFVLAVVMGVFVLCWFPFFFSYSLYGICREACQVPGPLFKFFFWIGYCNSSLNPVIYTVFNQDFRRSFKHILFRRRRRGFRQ
Source text: as §1

Series [3] can be described thus: Plasma clearance, rat. Format: in vivo. The settings on record: male, Sprague Dawley, 1 mg/kg, intravenous, 1 mL/kg of 1.0 mg/mL. Here is the method:
Male Sprague Dawley rats (body weight range 250-320 g) with indwelling femoral arterial cannulae are obtained from Charles River, Wilmington, Mass. 01887, USA. Test compound is administered intravenously in solution (1 mL/kg) in 20% Captisol® in 22.5 mM phosphate buffer, pH 2, at a final drug concentration of 1.0 mg/mL (free base equivalents). Blood samples are obtained using the indwelling cannula over 24 hr. Samples of plasma are obtained by centrifugation and stored frozen (−20° C.), or on dry ice, prior to analysis. Frozen plasma samples are thawed to room temperature for bioanalysis of concentrations of test compound. A related internal standard compound in acetonitrile/methanol (1:1, v/v) is added to all samples of plasma (1:1, v/v). The samples are centrifuged to remove precipitated protein prior to analysis. The supernatants are analysed by injection and rapid gradient elution on a Javelin Betasil C18 column (20×2.1 mm cartridge, Mobile phase A: Water/1 M NH4HCO3, 2000:10 v/v, Mobile Phase B: MeOH/1 M NH4HCO3, 2000:10 v/v). The eluted analytes are detected by LC-MS-MS analysis using a Sciex API 4000 triple quadrupole mass spectrometer. Concentrations of compound are determined from standards prepared and analysed under identical conditions. Clearance is calculated using non-compartmental analysis in Watson 7.4, Thermo Fisher Scientific, Inc.

Series [4] concerns the target T1, recombinant 5-HT2C receptor (human) (Homo sapiens, UniProt P28335).
T1 construct: expressed in transfected cells; host or cells: AV-12 (membranes)
The series is described as follows: 5-HT2C competition binding assay ([125I]-DOI, SPA). As to the method:
[^125I]-(±)DOI binding experiments are carried out in SPA 96-well format. Membranes used in this assay are prepared from AV-12 cells stably expressing recombinant 5-HT2C receptor (human). The incubation is initiated by the addition of a mixture of WGA PVT SPA beads (0.5 mg/well, Perkin Elmer (MA, USA), RPNQ0001) and 2.5 μg membranes to assay buffer (50 mM Tris-HCl, 10 mM MgCl2, 0.5 mM EDTA, 10 μM pargyline, 0.1% ascorbic acid, pH7.4) containing 0.2 nM [[^125I]-(±)DOI and varying concentrations of the test compound (10 point concentration response curves). Non-specific binding is determined in the presence of 20 μM 1-(1-Naphthyl) piperazine. Samples are incubated for 4 hr. at room temperature (22° C.) and then read in a Microbeta Trilux.
Curves are evaluated using a 4-parameter logistic nonlinear equation to obtain the concentration of competitor causing 50% inhibition of radioligand binding (IC50). Equilibrium dissociation constants (Ki) are calculated according to the equation Ki=IC50/(1+L/Kd), where L equals the concentration of radioligand used in the experiment and Kd equals the equilibrium dissociation constant of the radioligand for the receptor, determined from standard saturation analysis or homologous competition experiments. […]

Series [5] concerns the target Dopamine Transporter (Homo sapiens, UniProt Q01959). As to the kind of experiment: Dopamine transporter binding.
Source text: as §1

Dopamine Transporter, sequence (Q01959 whole entry): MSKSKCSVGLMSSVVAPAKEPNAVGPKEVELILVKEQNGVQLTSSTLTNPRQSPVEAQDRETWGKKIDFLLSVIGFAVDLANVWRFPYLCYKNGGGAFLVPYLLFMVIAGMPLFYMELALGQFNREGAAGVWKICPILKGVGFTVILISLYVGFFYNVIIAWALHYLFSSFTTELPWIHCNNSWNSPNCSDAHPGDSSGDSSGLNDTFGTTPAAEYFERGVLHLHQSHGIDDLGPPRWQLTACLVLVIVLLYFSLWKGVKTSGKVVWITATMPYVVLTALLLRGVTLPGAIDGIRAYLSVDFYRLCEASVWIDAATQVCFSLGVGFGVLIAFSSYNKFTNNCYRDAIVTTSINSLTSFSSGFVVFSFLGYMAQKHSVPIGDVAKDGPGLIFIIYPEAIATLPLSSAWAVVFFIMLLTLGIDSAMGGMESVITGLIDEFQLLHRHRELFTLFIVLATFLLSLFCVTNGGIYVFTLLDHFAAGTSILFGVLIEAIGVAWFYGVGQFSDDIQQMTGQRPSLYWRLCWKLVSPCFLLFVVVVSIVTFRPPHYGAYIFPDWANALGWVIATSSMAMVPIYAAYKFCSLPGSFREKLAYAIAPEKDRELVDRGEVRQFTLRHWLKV
T1 sequence (P28335 33-458): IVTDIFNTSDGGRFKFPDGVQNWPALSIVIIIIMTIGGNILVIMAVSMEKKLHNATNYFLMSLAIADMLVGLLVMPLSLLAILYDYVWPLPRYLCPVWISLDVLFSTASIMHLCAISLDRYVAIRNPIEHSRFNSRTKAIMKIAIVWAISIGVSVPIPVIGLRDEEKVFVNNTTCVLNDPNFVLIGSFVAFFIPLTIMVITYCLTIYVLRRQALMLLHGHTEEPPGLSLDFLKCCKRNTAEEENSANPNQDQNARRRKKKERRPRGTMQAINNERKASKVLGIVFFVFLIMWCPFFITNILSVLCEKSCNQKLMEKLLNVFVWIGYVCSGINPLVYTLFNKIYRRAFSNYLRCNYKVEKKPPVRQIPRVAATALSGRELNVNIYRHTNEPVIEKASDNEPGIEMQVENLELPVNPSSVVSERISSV

Broadly, the Ki is a measure of affinity in units of concentration, obtained from inhibition or displacement. Usually clearance stands for the rate of elimination divided by the concentration. As to `Cc1ccc2c(c1)Oc1sc(C)cc1C(N1CCN(CC(C)(C)C(=O)O)CC1)=N2` [Example 2, 3-[4-(2,8-Dimethylthieno[2,3-b][1,5]benzoxazepin-4-yl)piperazin-1-yl]-2,2-dimethyl-propanoic acid dihydrochloride], the Ki in series [1] was greater than 8.83 µM; in series [2] it was greater than 5.55 µM; in series [4] it was 0.883 µM; in series [5], greater than 0.877 µM. The clearance in series [3] came out at 27 mL/min/kg.

For the origin of these results see patent US9512140B2, “(Thieno[2,3-b][1,5]benzoxazepin-4-yl)piperazin-1-yl compounds as dual activity H1 inverse agonists/5-HT2A antagonists” (priority 2011, dated 2016).
